US11779015B2, “Pesticide compositions” (FUNDACIÓ CENTRE DE REGULACIÓ GENÒMICA, priority 2017, dated 2023)
“Also recorded” adds a separate entry of the source.

Experiments:
D. suzukii [1] = test: Airborne toxicity petri dish assay, adult flies exposed to VOC vapours (FIG. 1A); format: in vivo, Drosophila suzukii; conditions: for LD50 (expected concentration at which 50% of the flies die): D. suzukii adults, vapours from solution in paraffin oil, within an hour; for T50 (time at which 50% of the flies were dead) / T50: D. suzukii; for T50: 10% vol; for airborne toxicity/lethality in the initial screen with a high dose (words): VOC at 10 M in paraffin oil, vapour exposure, 1 hour; for specificity of toxicity, D. suzukii versus D. melanogaster: at least at the 3, 5 and 10% vol concentrations
Protocol: A selection of compounds according to the invention were tested for airborne toxicity to D. suzukii by exposing a population of adult D. suzukii flies to the vapours of the compound using an experimental set up as shown on FIG. 1A.
In particular, adult flies 2 were exposed to compositions 4 comprising one or more of a selection of VOCs according to the invention or a comparative example, in a petri dish 6. The compositions 4 were loaded onto the lid 6a of the petri dish 6 and the flies were placed into the base 6b of the dish, which was then covered by a sheet of plastic mesh netting 8 to avoid direct contact of the flies 2 with the compositions 4, before replacing the lid 6a.
[…] Four drops of 50 microlitres were dispensed into reinforcement rings (not shown) fixed on the inner surface of the petri dish lid 6a.
The experimental set up used was as described in relation to FIG. 1A.
The data is shown as averages±SEM based on 3 to 6 trials for each condition.

adult D. suzukii flies = test: Petri dish assay, dose-range 0.3 to 10% vol in paraffin oil, 24 h exposure (FIG. 3E); format: in vivo, Drosophila suzukii; conditions: paraffin oil, 24 h exposure (Example 2)
Text: Data are represented as mean proportion of dead flies, with counts separated between male (as indicated by ‘M’) and female (as indicated by ‘F’) flies. […] Data points marked NaN were not tested at the indicated concentration. The MEC column summarises the minimal effective concentration to induce 100% morbidity/mortality to adult D. suzukii flies.

D. suzukii [2] = test: Infestation of pre-odour-treated blueberries, emergence of adult flies; format: in vivo, Drosophila suzukii; conditions: 48 hours with adult flies, counted after 14 days
Protocol: Adult mixed female and male flies 20 (in the experiments below, D. suzukii flies) are placed in a cylindrical cage 60a with mesh roofing 80 for ventilation. Fruits 40 (in the experiments below 8 blueberries were used) are placed into a petri dish bottom 60b at the bottom of the cage 60a.
The blueberries were treated with (E)-2-hexenal and then exposed to flies. The impact of 1% vol, 5% vol and 10% vol aqueous emulsions of (E)-2-hexenal (obtained by dissolving the VOC in deionized water (DI) containing 1% (v/v) Tween 20 hydrophilic emulsifier) on egg-laying and the survival and development of larvae in pre-treated blueberries were compared to water-treated controls. In particular, the number of flies emerging after 14 days at ambient temperature was counted, following 48 hours of incubation of the treated blueberries with adult flies. The results of this analysis are shown on FIG. 6B. […] Significance was assessed by one-way ANOVA followed by Bonferroni correction at p≤0.05 and post-hoc two-sample t-test.
Eight ripe blueberries were dipped into 10 mL of a 1%, 5% or 10% aqueous emulsion of (E)-2-hexenal or deionised water as a control and left to air dry. They were then placed in a Petri dish at the bottom of a cylindrical plastic fly cage (∅=5.5 cm, h=7.5 cm), together with 20 mixed (10 females, 10 males) adult D. suzukii flies. The flies were exposed to the odour-treated blueberries during 48 hours at ambient room temperature conditions, after which they were removed and discarded. The blueberries were then transferred into an empty fly vial with cotton lids, and after 14 days at ambient room temperature conditions, the emergence of adult D. suzukii was examined by counting the number of flies. The assay was repeated 5 times.

D. suzukii larvae = test: Fly larva chemotaxis assay; format: in vivo, Drosophila suzukii; conditions: 1% vol in paraffin oil, 5 minutes
Protocol: (§1) Larvae were exposed to 1% vol solution of (E)-2-hexenal or methyl benzoate in paraffin oil loaded onto the lid of a petri dish. Their movement was tracked for 5 minutes. A preference index was quantified as the fraction of time larvae spent in a zone around the odour sources. A population of 15 larvae were used per trial and they were placed in the centre of the petri dish at the start of the experiment. The average distance of the larvae to the odour sources was also quantified over time. The results of this analysis are shown on FIG. 9, for each of the conditions where a VOC of the invention was used. A total of 10 trials were performed for each condition, i.e. for each VOC and fly species, and 30 trials were performed for a control condition, for which only the solvent paraffin oil was applied.
(§2) Behavioural experiments were performed with third instar foraging larvae. A group of approximately 15 larvae per trial was placed in a Petri dish and monitored during 5 minutes for their chemotactic behaviour, as larvae were exposed to an odour gradient in gas phase emanating from the two odour sources on the lid of the Petri dish. […] Larval behaviour was tracked using a video camera and the data derived was then analysed in Matlab (MathWorks) using custom-made programs to calculate additional time-series variables, and to determine the preference index and the distance of larvae to the source.

[3] = tested on: adult flies of D. suzukii; test: Contact toxicity, adult flies sprayed in a bugdorm; format: in vivo, Drosophila suzukii; conditions: for Proportion of dead flies (%): sprayed; for concentration inducing mortality by contact (as low as): sprayed adult D. suzukii
Protocol: Contact toxicity of E-2-hexenal and methyl benzoate volatiles was tested at different concentrations and in combination with thickeners in different concentration that make E-2-hexenal and methyl benzoate stick to the flies. […] Flies (10-15 mixed males/females) were placed into a bugdorm and sprayed from a distance of 10 cm. Mortality was evaluated after 24 hrs, except for the condition indicated with a star in Table 3, where an exposure time of 50 minutes was used. Thickeners were diluted in aqueous emulsions of deionised water containing 1% vol. Tween 20.

D. santomea larvae = test: Fly larva chemotaxis assay; format: in vivo; conditions: 1% vol in paraffin oil, 5 minutes
Protocol: as §1, §2

[4] = 0.1% compound + 1% Arabic Gom, 24 hrs
[5] = 0.1% compound + 1% hydroxyethylcellulose, 24 hrs
[6] = 0.1% compound, mortality after 24 hrs
[7] = 1% compound + 1% Arabic Gom, 24 hrs
[8] = 1% compound + 1% hydroxyethylcellulose, 24 hrs
[9] = 5% compound, mortality after 24 hrs
[10] = *1% compound, exposure time of 50 minutes

| SMILES | LD50 (expected concentration at which 50% of the flies die) (D. suzukii [1]) [% vol] | T50 (time at which 50% of the flies were dead) (D. suzukii [1]; 1% concentration) | T50 (D. suzukii [1]) [min] | T50 (time at which 50% of the flies were dead) (D. suzukii [1]; concentration 5% vol) [min] | T50 (time at which 50% of the flies were dead) (D. suzukii [1]; concentration 10% vol) [min] | T50 (time at which 50% of the flies were dead) (D. suzukii [1]; concentration 20% vol) [min] | T50 (time at which 50% of the flies were dead) (D. suzukii [1]; concentration 100% vol) [min] | airborne toxicity/lethality in the initial screen with a high dose (words) (D. suzukii [1]) | specificity of toxicity, D. suzukii versus D. melanogaster (D. suzukii [1]) | larval chemotactic response (D. suzukii larvae) | Proportion of dead flies (%) [3, 4] [%] | Proportion of dead flies (%) [3, 5] [%] | Proportion of dead flies (%) [3, 6] [%] | Proportion of dead flies (%) [3, 7] [%] | Proportion of dead flies (%) [3, 8] [%] | Proportion of dead flies (%) [3, 9] [%] | Proportion of dead flies (%) [3, 10] [%] | concentration inducing mortality by contact (as low as) [3] [%] | further results |
| --- | --- | --- | --- | --- | --- | --- | --- | --- | --- | --- | --- | --- | --- | --- | --- | --- | --- | --- | --- |
| CCC/C=C/C=O [(E)-2-hexenal] | 3 | not lethal | 4.1 | 9.3 | 4.1 | 1.6 | 1.2 | highly toxic; also recorded: showed toxicity | specific toxicity towards D. suzukii | attractive chemotactic responses | 80 | 80 | 31 | 10 | 50 | 100 | 50 | 0.1 | lethality as a function of the sex of the flies (D. suzukii [1]; 5% vol in paraffin solution, adult D. suzukii, males vs females): males displayed more sensitivity; Minimal concentration (%) to induce 100% morbidity/mortality in D. suzukii adults (adult D. suzukii flies): 4%; fly emergence from pre-treated blueberries versus untreated (D. suzukii [2]; 1% aqueous emulsion): not significantly different from untreated berries; fly emergence from pre-treated blueberries versus untreated (D. suzukii [2]; 5% aqueous emulsion): significant reduction of fly emergence; fly emergence from pre-treated blueberries versus untreated (D. suzukii [2]; 10% aqueous emulsion): significant reduction of fly emergence |
| COC(=O)c1ccccc1 [methyl benzoate, Methyl benzoate] | 3 | not lethal | 5.9 | 9.8 | 5.9 | 4.2 | 2.8 | highly toxic; also recorded: showed toxicity | specific toxicity towards D. suzukii | strongly repulsive | 30 | 10 | 33 | 30 | 70 | 100 | 30 | 0.1 | larval chemotactic response (D. santomea larvae): strongly attractive |
